From paper PMC467089, “Click estradiol dimers with novel aromatic bridging units: synthesis and anticancer evaluation” (Journal of Enzyme Inhibition and Medicinal Chemistry, 2024)

Key:
HUVEC cells = experiment: Endothelial cell tube formation angiogenesis assay; type: cell-based, human; details: 60 nM, 24 h, Matrigel
Protocol: The experiment was performed in 96-well plates pre-coated with 50 μL of growth factor reduced basement membrane matrix Matrigel (Corning, Corning, NY). The coating was set by incubating the plates for 1 h at 37 °C. Subsequently, HUVEC cells were seeded at a density of 15 000 cells per well, and dissolved test substances were added to this layer in a total volume of 100 μL. The assay plates were then incubated for 24 h to facilitate endothelial tube formation. After this incubation, the cells were stained with Hoechst 33342 (Thermo Fisher Scientific, Waltham, MA) to a final concentration of 10 μM and calcein AM (Invitrogen, Carlsbad, CA) to a final concentration of 2 µg/mL for 30 min, followed by visualisation in DIC and fluorescent modes using a Zeiss fluorescent microscope (Oberkochen, Germany).

CCRF-CEM lymphoblasts [1] = experiment: BrU incorporation analysis (RNA synthesis); type: cell-based, human
Method in brief: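 CCRF-CEM cells were treated with compounds for 24 h, then pulsed with 1 mM BrU for 30 min and fixed in 1% paraformaldehyde/0.05% NP-40. BrU was detected with a cross-reacting anti-BrdU antibody and FITC secondary, with propidium iodide/RNase counterstain; value is percentage of BrU-positive cells by flow cytometry.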

porcine brain tubulin [2] = biological target: T1, porcine brain tubulin (Sus scrofa, UniProt P02550+P02554); experiment: Tubulin polymerisation assay; type: biochemical; details: 10 μmol/L, Vmax relative to DMSO
T1 construct: purchased Cytoskeleton, Denver, CO; host or cells: porcine brain (tissue-purified)
T1 sequence (P02550 whole entry): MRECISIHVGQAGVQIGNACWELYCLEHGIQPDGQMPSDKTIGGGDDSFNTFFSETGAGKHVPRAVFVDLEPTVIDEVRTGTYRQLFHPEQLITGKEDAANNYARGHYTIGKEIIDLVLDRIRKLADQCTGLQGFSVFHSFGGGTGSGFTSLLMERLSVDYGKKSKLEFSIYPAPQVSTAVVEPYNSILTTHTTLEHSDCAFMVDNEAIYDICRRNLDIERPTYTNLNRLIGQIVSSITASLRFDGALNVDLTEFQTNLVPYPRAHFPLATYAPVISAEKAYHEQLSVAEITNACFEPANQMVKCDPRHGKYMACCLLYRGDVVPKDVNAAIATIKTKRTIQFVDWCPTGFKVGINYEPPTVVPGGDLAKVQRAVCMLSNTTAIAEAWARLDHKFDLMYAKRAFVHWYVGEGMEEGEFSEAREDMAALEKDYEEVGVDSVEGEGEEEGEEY
T1 sequence (P02554 whole entry): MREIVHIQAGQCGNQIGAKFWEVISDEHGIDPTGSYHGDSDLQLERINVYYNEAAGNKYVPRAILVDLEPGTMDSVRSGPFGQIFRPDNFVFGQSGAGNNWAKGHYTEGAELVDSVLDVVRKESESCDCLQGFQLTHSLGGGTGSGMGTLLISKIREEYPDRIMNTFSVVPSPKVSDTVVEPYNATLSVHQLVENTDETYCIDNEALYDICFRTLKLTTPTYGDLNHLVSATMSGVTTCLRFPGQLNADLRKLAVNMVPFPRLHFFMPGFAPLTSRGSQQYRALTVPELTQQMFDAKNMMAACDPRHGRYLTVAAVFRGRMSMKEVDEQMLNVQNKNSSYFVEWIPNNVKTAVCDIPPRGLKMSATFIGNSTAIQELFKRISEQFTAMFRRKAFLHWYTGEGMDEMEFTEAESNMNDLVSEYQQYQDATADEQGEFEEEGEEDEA
Method in brief: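 Porcine brain tubulin (>99% pure) was polymerised at 37 °C with 10 μmol/L test compound or DMSO and monitored on a plate reader. Vmax was derived from the polymerisation curves.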

[3] = MTS cytotoxicity assay, MRC-5; type: cell-based; details: human
Method in brief: (§1)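 MTS read-out after 72 h compound exposure at 37 °C. Cells plated the day before, treated with fourfold serial dilutions from DMSO stocks; duplicate wells, three independent experiments.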

[4] = test system: CCRF-CEM (childhood T-cell acute lymphoblastic leukaemia); experiment: MTS cytotoxicity assay, CCRF-CEM; type: cell-based; details: Homo sapiens, 72 h, read-out: IC50 cytotoxic activity CCRF-CEM
Method in brief: as §1

CCRF-CEM lymphoblasts [5] = experiment: BrDU incorporation analysis (DNA synthesis); type: cell-based, human
Method in brief: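 CCRF-CEM cells exposed to compounds for 24 h, pulse-labelled 30 min before harvest with 10 μM BrDU, ethanol-fixed, HCl-denatured, stained with anti-BrdU/FITC plus propidium iodide and RNase. Flow cytometry (488 nm) gives the percentage of BrDU-positive cells.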

CCRF-CEM lymphoblasts [6] = experiment: Cell cycle analysis by flow cytometry (propidium iodide); type: cell-based, human
Method in brief: (§2)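 CCRF-CEM cells treated 24 h, then fixed in cold 70% ethanol, permeabilised with 0.25% Triton X-100 and stained with anti-phospho-histone H3 (Ser10). After 50 μg/mL RNase and propidium iodide, analysed by flow cytometry at 488 nm; sub-G1 events counted as non-viable with fragmented DNA.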

CCRF-CEM lymphoblasts [7] = experiment: Phospho-histone H3 (Ser10) mitotic marker, flow cytometry; type: cell-based, human
Method in brief: as §2

[8] = MTS cytotoxicity assay, HUVEC; type: cell-based; details: human
Method in brief: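 Cells seeded overnight, then exposed to fourfold serial dilutions of compounds (DMSO) for 72 h at 37 °C, 5% CO2; viability read by MTS reagent. Technical duplicates, three biological replicates. HCT116p53−/− is the p53-null variant.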

[9] = test system: HCT116 (colorectal adenocarcinoma); experiment: MTS cytotoxicity assay, HCT116; type: cell-based; details: Homo sapiens, HCT-116, 72 h, read-out: IC50 cytotoxic activity HCT116
Method in brief: as §1

[10] = MTS cytotoxicity assay, BJ; type: cell-based; details: human
Method in brief: (§3)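 Viability is measured by MTS after cells, seeded overnight, receive fourfold-diluted compounds for 72 h at 37 °C.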

[11] = test system: K562-TAX (paclitaxel-resistant variant of K562); experiment: MTS cytotoxicity assay, K562-TAX; type: cell-based, human; details: Homo sapiens, K562-Tax, 72 h, read-out: IC50 cytotoxic activity K562-TAX
Method in brief: as §3

U2OS (osteosarcoma) = experiment: MTS cytotoxicity assay, U2OS; type: cell-based, human; details: Homo sapiens, U2OS, 72 h, read-out: IC50 cytotoxic activity U2OS
Method in brief: as §3

[12] = test system: HCT116p53−/− (p53 gene null variant of HCT116); experiment: MTS cytotoxicity assay, HCT116p53−/−; type: cell-based; details: Homo sapiens, HCT-116, 72 h, read-out: IC50 cytotoxic activity HCT116p53-
Method in brief: as §1

[13] = test system: K562 (chronic myelogenous leukaemia); experiment: MTS cytotoxicity assay, K562; type: cell-based; details: Homo sapiens, K562, 72 h, read-out: IC50 cytotoxic activity K562
Method in brief: as §1

[14] = test system: CEM-DNR (daunorubicin resistant variant of CCRF-CEM); experiment: MTS cytotoxicity assay, CEM-DNR; type: cell-based, human; details: Homo sapiens, CEM-DNR, 72 h, read-out: IC50 cytotoxic activity CEM-DNR
Method in brief: as §3

[15] = test system: A549 (lung adenocarcinoma); experiment: MTS cytotoxicity assay, A549; type: cell-based, human; details: Homo sapiens, A549, 72 h, read-out: IC50 cytotoxic activity A549
Method in brief: as §3

porcine brain tubulin [16] = biological target: T1, porcine brain tubulin; design: method as in PMID 36592487; details: dimers of the previous study; ref [10]; cited from earlier work

Q: For `Cc1ccc(C(=O)Nc2ccc(S(=O)(=O)O)c3cc(S(=O)(=O)O)cc(S(=O)(=O)O)c23)cc1NC(=O)c1cccc(NC(=O)Nc2cccc(C(=O)Nc3cc(C(=O)Nc4ccc(S(=O)(=O)O)c5cc(S(=O)(=O)O)cc(S(=O)(=O)O)c45)ccc3C)c2)c1` [suramine], which “endothelial cell tube formation (in words)” value (HUVEC cells) is on record?
A: prevented endothelial cell tube formation

Q: What does the source list for `C[C@]12CC[C@@H]3c4ccc(O)cc4CC[C@H]3[C@@H]1CC[C@@]2(O)c1cn(Cc2cc(O)cc(Cn3cc([C@]4(O)CC[C@H]5[C@@H]6CCc7cc(O)ccc7[C@H]6CC[C@@]54C)nn3)c2)nn1` [ED2, (17β,17′β)-17,17′-[(5-Hydroxybenzene-1,3-diyl)bis(methanediyl-1H-1,2,3-triazole-1,4-diyl)]bisestra-1,3,5(10)-triene-3,17-diol]?
A: BrU, % of positive cells (CCRF-CEM lymphoblasts [1]; 1×IC50, 24 h): 41.11%; BrU, % of positive cells (CCRF-CEM lymphoblasts [1]; 5×IC50, 24 h): 41.82%; inhibitory activity against tubulin polymerisation (in words) (porcine brain tubulin [2]): weak in vitro inhibition; IC50 at 72 h [3]: > 50 µM; IC50 [4]: 1.7 ± 0.19 µM; BrDU, % of positive cells (CCRF-CEM lymphoblasts [5]; 1×IC50, 24 h): 15.09%; BrDU, % of positive cells (CCRF-CEM lymphoblasts [5]; 5×IC50, 24 h): 21.14%; <G1 (sub-G1, fragmented DNA), % of positive cells (CCRF-CEM lymphoblasts [6]; 1×IC50, 24 h): 28.21%; >G2/M (polyploidy), % of positive cells (CCRF-CEM lymphoblasts [6]; 1×IC50, 24 h): 8.33%; G0/G1, % of positive cells (CCRF-CEM lymphoblasts [6]; 1×IC50, 24 h): 2.32%; G2/M, % of positive cells (CCRF-CEM lymphoblasts [6]; 1×IC50, 24 h): 64.90%; S, % of positive cells (CCRF-CEM lymphoblasts [6]; 1×IC50, 24 h): 32.78%; <G1 (sub-G1, fragmented DNA), % of positive cells (CCRF-CEM lymphoblasts [6]; 5×IC50, 24 h): 19.20%; >G2/M (polyploidy), % of positive cells (CCRF-CEM lymphoblasts [6]; 5×IC50, 24 h): 8.13%; G0/G1, % of positive cells (CCRF-CEM lymphoblasts [6]; 5×IC50, 24 h): 0.47%; G2/M, % of positive cells (CCRF-CEM lymphoblasts [6]; 5×IC50, 24 h): 58.40%; S, % of positive cells (CCRF-CEM lymphoblasts [6]; 5×IC50, 24 h): 41.13%; pH3Ser10, % of positive cells (CCRF-CEM lymphoblasts [7]; 1×IC50, 24 h): 52.73%; pH3Ser10, % of positive cells (CCRF-CEM lymphoblasts [7]; 5×IC50, 24 h): 47.87%; IC50 at 72 h [8]: < 0.0122 µM; IC50 [9]: 3.57 ± 0.66 µM; IC50 at 72 h [10]: > 50 µM; IC50 [11]: > 50 µM; IC50 (U2OS (osteosarcoma)): > 50 µM; IC50 [12]: 4.26 ± 0.94 µM; IC50 [13]: 1.48 ± 0.19 µM; IC50 [14]: > 50 µM; IC50 [15]: 6.69 ± 0.79 µM

Q: For `C[C@]12CC[C@@H]3c4ccc(O)cc4CC[C@H]3[C@@H]1CC[C@@]2(O)c1cn(CCNCCn2cc([C@]3(O)CC[C@H]4[C@@H]5CCc6cc(O)ccc6[C@H]5CC[C@@]43C)nn2)nn1` [D3], which Tubulin polymerisation inhibition (porcine brain tubulin [16]) is on record?
A: 36.8%

Q: For `C[C@]12CC[C@@H]3c4ccc(O)cc4CC[C@H]3[C@@H]1CC[C@@]2(O)c1cn(CCCCCn2cc([C@]3(O)CC[C@H]4[C@@H]5CCc6cc(O)ccc6[C@H]5CC[C@@]43C)nn2)nn1` [D1], which Tubulin polymerisation inhibition (porcine brain tubulin [16]) is on record?
A: 65.0%
